Like-named read-outs stand apart in the source and are kept apart here.
How the values were obtained:
katGFSAA6 Mtb = assay: Lawn of katGFSAA6 Mtb plated on agar (FIG. 9c-9f); type: cell-based, Mycobacterium tuberculosis
[1] = test system: Erdman Wild-Type Mycobacterium tuberculosis; type: cell-based
[2] = test system: Mycobacterium tuberculosis Erdman; assay: Biofilm inhibition of Mycobacterium tuberculosis (ocular inspection); type: cell-based; conditions: for inhibition at 10 µM: read-out: Average % Inhibition at 10 μM; for inhibition at 25 µM: read-out: Average % Inhibition at 25 μM; for minimal effective concentration: concentration at which full biofilm inhibition took place, replicate determinations in one cell
Mtb = conditions: cited from earlier work
[3] = test system: Mycobacterium tuberculosis; type: cell-based
[4] = test system: Mycobacterium tuberculosis; type: cell-based; remark: listed apart in the source
[5] = biofilm inhibition, 10 μM, average of three or more measurements (100/50/0% scoring)
[6] = biofilm inhibition, 25 μM, average of three or more measurements (100/50/0% scoring)
[7] = biofilm inhibition, average of three or more measurements (100/50/0% scoring)

O=C(O)[C@@H]1CSc2c(C3CC3)c(Cc3cccc4ccccc34)cc(=O)n21 [Example 1, (3R)-7-Cyclopropyl-6-[(1-naphthyl)methyl]-4-oxo-1-thia-3a-aza-3-indancarboxylic acid]
growth of katGFSAA6 strain on agar (katGFSAA6 Mtb): able to grow
doubling time [1]: 52 h
fold less Mtb in the culture as compared to controls (CFU) [1]: 7.6 fold
inhibition at 10 µM [2]: 100%
inhibition at 25 µM [2]: 100%

NNC(=O)c1ccncc1 [INH, isonicotinylhydrazide, reference compound]
MIC (Mtb): 0.02 to 0.06 µg/mL
tuberculosis bacteria detected (ratio of CFU treated/untreated) ([3]; […], Example 1 50 microM, Example 19 25 microM): tuberculosis bacteria remained
eradication of Mycobacterium tuberculosis (conclusion) ([3]; conclusions from FIG. 5 and FIG. 6 experiments): did not eradicate
growth of katGFSAA6 strain on agar (katGFSAA6 Mtb; agar plates containing INH, Example 1 or combination): able to grow
Mtb growth as measured by ODλ600 [1]: completely inhibited
culturable bacteria remaining (CFU) [1]: several thousand

O=C(O)c1c(-c2c[nH]nn2)sc2c(C3CC3)c(Cc3cccc4ccccc34)cc(=O)n12 [Example 18, 5-Cyclopropyl-4-[(1-naphthyl)methyl]-2-oxo-8-(1H-1,2,3-triazol-4-yl)-7-thia-1-azabicyclo[4.3.0]nona-3,5,8-triene-9-carboxylic acid]
inhibition at 10 µM [2, 5]: 12%
inhibition at 25 µM [2, 6]: 12%
inhibition at 50 µM [2, 7]: 38%

O=c1cc(Cc2cccc3ccccc23)c(C2CC2)c2n1CCS2 [Example 31, 7-Cyclopropyl-6-[(1-naphthyl)methyl]-1-thia-3a-aza-4-indanone]
inhibition at 50 µM [2, 7]: 100%

NC(=O)[C@@H]1CSc2c(C3CC3)c(Cc3cccc4ccccc34)cc(=O)n21 [Example 21, (3R)-7-Cyclopropyl-6-[(1-naphthyl)methyl]-4-oxo-1-thia-3a-aza-3-indancarboxamide]
inhibition at 10 µM [2, 5]: 12%
inhibition at 25 µM [2, 6]: 100%
inhibition at 50 µM [2, 7]: 100%

Cc1cc(=O)n2c(c1C1CC1)SC[C@H]2C(=O)O [Example 24, (3R)-7-Cyclopropyl-6-methyl-4-oxo-1-thia-3a-aza-3-indancarboxylic acid]
inhibition at 25 µM [2, 6]: 12%
inhibition at 50 µM [2, 7]: 62%

CN(C)c1c(Cc2cccc3ccccc23)cc(=O)n2c1SC[C@H]2C(=O)O [Example 40, (3R)-7-(Dimethylamino)-6-[(1-naphthyl)methyl]-4-oxo-1-thia-3a-aza-3-indancarboxylic acid]
inhibition at 10 µM [2, 5]: 50%
inhibition at 25 µM [2, 6]: 100%
inhibition at 50 µM [2, 7]: 50%

O=C(O)[C@@H]1CSc2c(OCC3CC3)c(Cc3cccc4ccccc34)cc(=O)n21 [Example 50, (3R)-7-(Cyclopropylmethoxy)-6-[(1-naphthyl)methyl]-4-oxo-1-thia-3a-aza-3-indancarboxylic acid]
inhibition at 50 µM [2, 7]: 25%

Cc1cccc(CCc2cc(=O)n3c(c2C(C)C)SC[C@H]3C(=O)O)c1 [Example 28, (3R)-7-Isopropyl-4-oxo-6-[2-(m-tolyl)ethyl]-1-thia-3a-aza-3-indancarboxylic acid]
minimal effective concentration [2]: 50 µM

O=C(O)[C@@H]1CSc2c(C3CC3)c(Cc3cccc(Cl)c3Cl)cc(=O)n21 [Example 20, (3R)-7-Cyclopropyl-6-[(2,3-dichlorophenyl)methyl]-4-oxo-1-thia-3a-aza-3-indancarboxylic acid]
inhibition at 10 µM [2, 5]: 75%
inhibition at 25 µM [2, 6]: 100%
inhibition at 50 µM [2, 7]: 100%
minimal effective concentration [2]: 25 µM

O=C(O)c1c(Cc2ccccc2)sc2c(C3CC3)c(Cc3cccc4ccccc34)cc(=O)n12 [Example 19, 8-Benzyl-5-cyclopropyl-4-[(1-naphthyl)methyl]-2-oxo-7-thia-1-azabicyclo[4.3.0]nona-3,5,8-triene-9-carboxylic acid]
inhibition at 10 µM [2, 5]: 0%
inhibition at 25 µM [2, 6]: 0%
inhibition at 50 µM [2, 7]: 88%
inhibition at 100 µM ([2]; biofilm inhibition, 100 μM, average of three or more measurements (100/50/0% scoring)): 100%

Cc1cccc(Cc2cc(=O)n3c(c2C2CC2)SC[C@H]3C(=O)O)c1C [Example 9, (3R)-7-Cyclopropyl-4-oxo-6-[(2,3-xylyl)methyl]-1-thia-3a-aza-3-indancarboxylic acid]
inhibition at 10 µM [2, 5]: 50%
inhibition at 25 µM [2, 6]: 87%
inhibition at 50 µM [2, 7]: 87%
minimal effective concentration [2]: 25 µM

O=C(O)[C@@H]1CSc2c(C3CC3)c(Cc3cccc4ccccc34)cc(=O)n21 [(3R)-7-Cyclopropyl-6-[(1-naphthyl)methyl]-4-oxo-1-thia-3a-aza-3-indancarboxylic acid]
eradication of Mycobacterium tuberculosis (conclusion) [4]: did not eradicate

COc1ccc2ccccc2c1Cc1cc(=O)n2c(c1C1CC1)SC[C@H]2C(=O)O [Example 49, (3R)-7-Cyclopropyl-6-[(2-methoxy-1-naphthyl)methyl]-4-oxo-1-thia-3a-aza-3-indancarboxylic acid]
minimal effective concentration [2]: 25 µM

O=c1cc(Cc2cccc3ccccc23)c(C2CC2)c2n1[C@H](CO)CS2 [Example 16, (3R)-7-Cyclopropyl-3-(hydroxymethyl)-6-[(1-naphthyl)methyl]-1-thia-3a-aza-4-indanone]
inhibition at 10 µM [2, 5]: 25%
inhibition at 25 µM [2, 6]: 62%
inhibition at 50 µM [2, 7]: 100%

O=C(O)[C@@H]1CSc2c(-c3cccs3)c(Cc3cccc4ccccc34)cc(=O)n21 [Example 17, (3R)-6-[(1-Naphthyl)methyl]-4-oxo-7-(2-thienyl)-1-thia-3a-aza-3-indancarboxylic acid]
inhibition at 10 µM [2, 5]: 25%
inhibition at 25 µM [2, 6]: 38%
inhibition at 50 µM [2, 7]: 100%
minimal effective concentration [2]: 50 µM

O=C(O)C1CS(=O)(=O)c2c(C3CC3)c(Cc3cccc4ccccc34)cc(=O)n21 (stereo not drawn) [Example 42, 7-Cyclopropyl-6-[(1-naphthyl)methyl]-1,1-dioxo-4-oxo-1-thia-3a-aza-3-indancarboxylic acid]
inhibition at 10 µM [2, 5]: 50%
inhibition at 25 µM [2, 6]: 12%
inhibition at 50 µM [2, 7]: 12%

O=C(NNC(=O)C1CSc2c(C3CC3)c(Cc3cccc4ccccc34)cc(=O)n21)c1ccncc1 (stereo not drawn) [Example 38, {7-Cyclopropyl-6-[(1-naphthyl)methyl]-4-oxo-1-thia-3a-aza-3-indanyl}(2-isonicotinoylhydrazino)formaldehyde]
inhibition at 10 µM [2, 5]: 100%
inhibition at 25 µM [2, 6]: 100%
inhibition at 50 µM [2, 7]: 100%
minimal effective concentration [2]: 25 µM

O=C(O)[C@@H]1CSc2c(C3CC3)c(Cc3ccc(Cl)cc3)cc(=O)n21 [Example 25, (3R)-6-[(p-Chlorophenyl)methyl]-7-cyclopropyl-4-oxo-1-thia-3a-aza-3-indancarboxylic acid]
inhibition at 25 µM [2, 6]: 12%
inhibition at 50 µM [2, 7]: 50%

O=C(O)c1c(-c2ccccc2)sc2c(C3CC3)c(Cc3cccc4ccccc34)cc(=O)n12 [Example 13, 5-Cyclopropyl-4-[(1-naphthyl)methyl]-2-oxo-8-phenyl-7-thia-1-azabicyclo[4.3.0]nona-3,5,8-triene-9-carboxylic acid]
inhibition at 10 µM [2, 5]: 62%
inhibition at 25 µM [2, 6]: 75%
inhibition at 50 µM [2, 7]: 100%
minimal effective concentration [2]: 50 µM

CS(=O)(=O)NC(=O)[C@@H]1CSc2c(C3CC3)c(Cc3cccc4ccccc34)cc(=O)n21 [Example 26, {(3R)-7-Cyclopropyl-6-[(1-naphthyl)methyl]-4-oxo-1-thia-3a-aza-3-indanyl}(methylsulfonylamino)formaldehyde]
minimal effective concentration [2]: 50 µM

N[C@@H]1CSc2c(C3CC3)c(Cc3cccc4ccccc34)cc(=O)n21 [Example 33, (3S)-3-Amino-7-cyclopropyl-6-[(1-naphthyl)methyl]-1-thia-3a-aza-4-indanone]
minimal effective concentration [2]: 25 µM

CC(C)c1c(Cc2cccc3ccccc23)cc(=O)n2c1SC[C@H]2C(=O)O [Example 23, (3R)-7-Isopropyl-6-[(1-naphthyl)methyl]-4-oxo-1-thia-3a-aza-3-indancarboxylic acid]
inhibition at 25 µM [2, 6]: 12%
inhibition at 50 µM [2, 7]: 50%

From US20230115208A1, “RING-FUSED THIAZOLINO 2-PYRIDONES, METHODS FOR PREPARATION THEREOF AND THEIR USE IN THE TREATMENT AND/OR PREVENTION OF TUBERCULOSIS” (QURETECH BIO AB, priority 2016, published 2023)
